According to patent publication EP2397471A1, “Benzimidazole compounds and their use” (China Medical University, priority 2010, dated 2011):

Tests used:
PC-3 cells [1] = test: In situ tubulin assay (immunofluorescence microscopy); type: cell-based; settings: 18 to 24 h
Experimental: The organization and formation of microtubule were detected by immunofluorescence microscopic examination in PC-3 cells.
PC-3 cells were seeded in 8-well chamber slides and incubated with a vehicle (0.1% DMSO, control), Compound 55 (10 µM), taxol (0.1 µM), or vincristine (0.1 µM) for 18 to 24 h. Then, the cells were fixed with 100 % methanol at -20°C for 5 min and incubated in 1 % bovine serum albumin (BSA) containing 0.1 % Triton X-100 at 37°C for 30 min. Cells were then washed twice with PBS for 5min and stained with primary antibody specific to β-tubulin at 37°C for 1 h. Afterwards, FITC-labeled secondary antibodies were used (staining performed at 37°C for 40 min, green fluorescence) and the protein was detected using a confocal laser microscopic system (Leica TCS SP2). The nuclei were visible by DAPI staining (1 mg/mL DAPI, blue fluorescence).

[2] = tested on: Cyclin E, Cyclin A, Cyclin B1, Cdk1, Cdk2, p27, MPM2; test: Western blot analysis of cell-cycle regulators; type: cell-based; settings: PC-3 cells; 10 µM
Experimental: (§1) PC-3 cells were incubated with a vehicle (0.1% DMSO) as control or Coumpound 55 (10 µM) for 30 min, 45 min, 60 min, and 120 min for testing Ras; or for 6 hrs, 12 hrs, 18 hrs, and 24 hrs for testing Raf-1, Phospho-MEK, MEK, and GAPDH. After the treatment, cells were washed twice with ice-cold PBS and then lysed with 100 µL lysis buffer (20 mM Tris, pH 7.5, 1 mM MgCl2, 125 mM NaCl, 1% Triton X-100, 1 mM phenylmethylsulphonylfluoride, 10 µg/mL leupeptin, 10 µg/mL aprotinin, 25 mM β-glycerophosphate, 50 mM NaF, and 100 µM sodium orthovanadate). Then, the expressions of the above proteins were detected by Western blotting.
The cell-cycle regulators were also examined by Western blot analysis. Proteins in the lysis (40 µg) were separated by electrophoresis in a 10 or 15% polyacrylamide gel, transferred to a nitrocellulose membrane and immuno-reacted with respective antibodies against Cyclin E, Cyclin A, Cyclin B1, Cdk1, Cdk2, p27, MPM2, and GAPDH.

Ras, Raf-1, and MEK = test: Western blotting of Ras, Raf-1, MEK; type: cell-based; settings: PC-3 cells; 10 µM; 30-120 min for Ras, 6-24 hrs for Raf-1, MEK
Experimental: as §1

Tubulin proteins = test: In vitro tubulin turbidity assay; type: biochemical; settings: absorbance at 340 nm, 37°C, 60 min
Experimental: Effects of the benzimidazole compounds on tubulin polymerization were detected using CytoDYNAMIX Screen 03 kit (Cytoskeleton, Inc., Denver, CO).
Tubulin proteins (> 99% purity) were suspended in G-PEM buffer containing 80 mM PIPES, 2 mM MgCl2, 0.5 mM […], and 1.0 mM GTP (pH 6.9) and 5% glycerol with or without a test compound. Then, the mixture was transferred to a 96-well plate and the absorbance was measured at 340 nm (37°C) for 60 min (SpectraMAX Plus, Molecular Devices Inc., Sunnyvale, CA).
Level oftubulin polymerization was determined by examining turbidity of the tubulin suspension. Absorbance of the suspension at 340 nm was plotted as a function of time. Accordingly, the velocity and magnitude of tubulin polymerization were determined.

[3] = tested on: Bcl-2 family member proteins, caspases; test: Western blot analysis of Bcl-2 family member proteins and caspases (apoptosis); type: cell-based; settings: PC-3 cells; 10 µM; 0 hr to 36 hrs
Experimental: Effect of benzimidazole compounds on inducing apoptosis was evaluated by testing their effect on the expression/activation of Bcl-2 family member proteins, caspases, and c-Jun N-terminal kinase (JNK). Bcl-2 family of proteins is the most important regulators of mitochondria-involved apoptotic cell death. The pro-apoptotic members, Bax, Bak and Bad, are required for the disruption of mitochondria; whereas the anti-apoptotic Bcl-2, Bcl-xL and Mcl-1 can prevent apoptosis by antagonizing the pro-apoptotic members.
PC-3 cells were incubated with a vehicle (0.1% DMSO) or Compound 55 (10 µM) for 0 hr, 6 hrs, 12 hrs, 18 hrs, 24 hrs, and 36 hrs. Then, the cells were harvested and lysed for the detection of protein expression with specific antibodies by western blot analysis. For Western blotting, the proteins (40 µg) in the lysis (including Phospho-Bcl-2, Bcl-2, Phospho-Bcl-xL, Bcl-xL, Mcl-1, Bax, Bak, Bad, GAPDH, cleaved Bad, Caspase-9, cleaved Caspase-9, Caspase-3, cleaved Caspase-3, poly-(ADP-ribose) polymerase (PARP), cleaved PARP, and GAPDH) were separated by electrophoresis in a 10 to 15% polyacrylamide gel, transferred to a nitrocellulose membrane and immuno-reacted with specific antibodies.

PC-3 cells [4] = test: FACScan flow cytometric analysis of cell cycle progression; type: cell-based; settings: 1 µM, 3 µM, and 10 µM, 0 hr to 48 hrs
Experimental: PC-3 cells were treated with Compound 55 (at different concentrations: 1 µM, 3 µM, and 10 µM) for 0 hr, 6 hrs, 12 hrs, 18 hrs, 24 hrs, 36 hrs, and 48 hrs. After treatment, cells were washed twice with ice-cold PBS, collected by centrifugation and fixed in 70% (v/v) ethanol at 4°C for 30 min. Then, cells were treated with 0.2 ml of a buffer (containing 0.2 M Na2HPO4 and 0.1 M citric acid buffer, pH 7.8) for 30 min, centrifuged, and then incubated in 1 mL propidium iodide (PI) staining buffer (0.1 % Triton X-100, 100 µg/mL RNase A, 80 µg/mL propidium iodide in PBS) at 37°C for 30 min. Cells were detected using a cytofluorometer, and analyzed by FACScan and CellQuest program (Becton Dickinson).

Row | SMILES | spindles and nuclei, in situ labeling of tubulin and chromosomes (PC-3 cells [1]; 10 µM) | expression of cyclin B1 [2] | expression of cyclin E and cyclin A [2] | expression of Ras, Raf-1, and MEK (Ras, Raf-1, and MEK) | tubulin polymerization (Tubulin proteins) | Mcl-1 expression [3] | cleavage of caspase-9, caspase-3 and PARP [3] | phosphorylation and degradation of Bcl-2 and Bcl-xL [3] | cell population at G2/M phase (PC-3 cells [4]) | hypodiploid (sub-G1, apoptosis) population of the cell cycle (PC-3 cells [4]) | spindles and nuclei, in situ labeling of tubulin and chromosomes (PC-3 cells [1]; 0.1 µM)
1 | COc1cc(Cn2c(-c3ccccc3)nc3cc(N4CCCC4)ccc32)cc(OC)c1OC [Compound 55, 2-phenyl-5-(pyrrolidin-1-yl)-1-(3,4,5-trimethoxybenzyl)-1H benzo[d]imidazole] | mono-polar | upregulated cyclin B1 | downregulated cyclin E and cyclin A | upregulated Ras, Raf-1, and MEK | inhibited tubulin polymerization in a dose-dependent manner | decrease of Mcl-1 expression | cleaved to produce catalytically active fragments | induced the phosphorylation and degradation of Bcl-2 and Bcl-xL | increase of cell population at G2/M phase | subsequent increase of hypodiploid (sub-G1, apoptosis) population | 
2 | CC(=O)O[C@H]1C(=O)[C@@]2(C)[C@H]([C@H](OC(=O)c3ccccc3)[C@]3(O)C[C@H](OC(=O)[C@H](O)[C@@H](NC(=O)c4ccccc4)c4ccccc4)C(C)=C1C3(C)C)[C@]1(OC(C)=O)CO[C@@H]1C[C@@H]2O [taxol] |  |  |  |  |  |  |  |  |  |  | multi-polar spindles and multiple nuclei were formed
3 | CC[C@]1(O)C[C@H]2CN(CCc3c([nH]c4ccccc34)[C@@](C(=O)OC)(c3cc4c(cc3OC)N(C=O)[C@H]3[C@@](O)(C(=O)OC)[C@H](OC(C)=O)[C@]5(CC)C=CCN6CC[C@]43[C@@H]65)C2)C1 [vincristine] |  |  |  |  |  |  |  |  |  |  | multi-polar spindles and chromosome condensation were observed
